In US6066485A, “Growth factor inducible serine/threonine phosphatase fin13” (New York University, priority 1997, dated 2000):
Where two headings read alike, the source gives them in different places.

What was measured:
[1] = test system: FIN13 mRNA; test: FIN13 mRNA in ovaries of mice stimulated with DES; assay type: in vivo; details: mouse
Procedure: Northern analysis. RNA was electrophoresed on a 1% formaldehyde agarose gel, transferred overnight in 20×SSC to Genescreen-Plus nylon filters (Du Pont) and fixed by u.v. crosslinking. Filters were prehybridized, hybridized with radiolabeled cDNA probes and washed under standard conditions. To stimulate folliculogensis, immature mice (3 weeks) were injected subcutaneously with diethylstilbesterol (DES) or vehicle essentially as described previously (Guthridge et al., Growth Factors, 7:15 (1992)), and RNA was prepared from ovaries four days after stimulation.

[2] = biological target: T1, his-FIN13 (Mus musculus, UniProt Q61074); test: Phosphatase assay of bacterially expressed his-FIN13 with 32P-labelled casein; assay type: biochemical
T1 construct: Purified his-tagged full length FIN13 (his-FIN13); made in house; host or cells: E. coli BL21(DE3)
T1 sequence (Q61074 151-542 limits assumed): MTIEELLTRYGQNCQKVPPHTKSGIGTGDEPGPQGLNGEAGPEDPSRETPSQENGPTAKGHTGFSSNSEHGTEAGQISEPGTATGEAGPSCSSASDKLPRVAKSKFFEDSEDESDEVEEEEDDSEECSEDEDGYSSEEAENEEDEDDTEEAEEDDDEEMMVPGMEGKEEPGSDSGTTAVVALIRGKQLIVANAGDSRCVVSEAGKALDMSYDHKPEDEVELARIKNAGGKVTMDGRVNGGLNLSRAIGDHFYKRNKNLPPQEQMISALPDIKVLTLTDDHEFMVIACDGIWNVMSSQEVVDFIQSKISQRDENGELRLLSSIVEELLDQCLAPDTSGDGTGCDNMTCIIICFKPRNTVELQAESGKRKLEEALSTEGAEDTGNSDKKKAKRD
Procedure: FIG. 5. Phosphatase activity of bacterially expressed FIN13. Purified his-tagged full length FIN13 (his-FIN13) or his-tagged catalytic domain FIN13 (his-FIN13-cat) were examined for their ability to dephosphorylate ^32 P-labelled cascin in vitro as described in the Materials and Methods. Phosphatase assays were performed in the absence of his-FIN13 (No FIN13; open bar) or with his-FIN13 incubated in the presence of 10 mM of the indicated divalent cation (MgCl2, ZnCl2, CaCl2 or MnCl2)(solid bars) or in the presence of the indicated mM concentrations of MnCl2 (half-tone bars). +EDTA: indicates his-FIN13 incubated in the presence of 10 mM EDTA and 10 mM MnCl2. his-FIN13-cat was incubated in the presence of the indicated mM concentrations of MnCl2 (cross-hatched bars). his-FIN13 was also incubated in the presence of 1 μM okadaic acid (OA), 20 mg/ml poly L-lysine (PL-L), 20 mg/ml protamine sulfate (PS). All incubations were performed for 1 h at 30° C.
Preparation of ^32 P-labelled casein. Casein (10 mg)(Sigma) was labelled with ^32 P using 10U of the catalytic subunit of cAMP dependent protein kinase (Sigma) in 50 mM Tris-HCl pH 7.0, 0.1 mM EGTA, 10 mM Mg-acetate, 0.1% β-mercaptoethanol, and 0.5 mCi of ^32 PγATP for 12 h at 30° C. The reaction mixture was then precipitated at 4° C. in 20% TCA. Labelled casein was recovered by centrifugation, the pellet washed 5 times in 100% acetone and resuspended in 50 mM Tris-HCl, 0.1 mM EGTA.
Phosphatase assay. The phosphatase activity of purified FIN13 expressed in bacteria as a fusion protein with N- and C-terminal his-tags was assessed in vitro using ^32 P-labelled casein as a substrate. For preparation of his-FIN13 and his-FIN13-cat from bacteria, the BL21(DE3) strain transformed with pEThis-FIN13 or pEThis-FIN13-cat were induced with 0.2 mM IPTG for 2 h following which the cells were recovered by centrifugation, resuspended in column buffer (50 mM sodium phosphate, pH 8.0, 300 mM NaCl, 1 mM PMSF) and frozen overnight at -70° C. The bacteria were then lysed by sonication at 4° C. and the extract cleared by centrifugation. The supernatant was then adsorbed to Ni-NTA-agarose (Qiagen) at 4° C. for 1 h. The resin was then washed extensively in column buffer without PMSF and his-FIN13 or his-FIN13-cat were eluted using 25 mM Tris-HCl pH 7.2, 100 mM NaCl containing […] imidazole (Sigma). In addition, the phosphatase activity of FIN13 expressed in HeLa cells was also determined in an immune complex using ^32 P-labelled casein as a substrate. For preparation of immune complexes of myc-FIN13, HeLa cells were transfected with […] of pRKmyc-FIN13 or pRK5. Cells were lysed 24 h after transfection in lysis buffer (10 mM Na-phosphate pH 7.4, 100 mM NaCl, 1% TRITON X-100, 10 mM EDTA) also containing a protease/phosphatase inhibitor cocktail (1 mM PMSF, 1 μg/ml pepstatin, 1 μg/ml leupeptin, 1 μg/ml aprotinin, 10 mM Na-orthovanadate, 80 mM NaF, 80 mM β-glycerolphosphate, 10 μM okadaic acid). Cleared lysates (100 μg total protein) were immunoprecipitated with anti-myc monoclonal antibody (9E10) adsorbed to 30 μl protein G sepharose (Zymed) or anti-FIN13 antiserum adsorbed to 30 μl protein A sepharose (Zymed) for 1.5 h at 4° C. The anti-FIN13 polyclonal antiserum (630) was generated against the full length his-FIN13 expressed and purified from bacteria. The IPs were then washed 5 times with lysis buffer, once with 10 mM Tris-HCl pH 7.0, 100 mM NaCl and 5 mM MnCl2, and twice with phosphatase reaction buffer (10 mM Tris-HCl pH 7.0, 0.1 mM EGTA, 10 mM DTT and 10 mM MnCl2) containing 1 μM okadaic acid. Purified his-FIN13, his-FIN13-cat or myc-lPs were then examined for phosphatase activity by incubating the indicated FIN13 preparation in the presence of phosphatase reaction buffer containing ^32 P-labelled casein (1×10^5 cpm; approx. 1 μl) at 30° C. for up to 2 h.

[3] = biological target: T2, myc-FIN13 (Mus musculus, UniProt Q61074); test: Phosphatase assay of myc-FIN13 immunoprecipitated from transfected HeLa cells; assay type: biochemical
T2 construct: in-frame with, and N-terminal to, the FIN13 open reading frame; expressed in transfected cells; host or cells: HeLa
T2 sequence (Q61074 151-542): T1 sequence (Q61074 151-542 limits assumed)
Procedure: FIGS. 6A-6C. Phosphatase activity and expression of FIN13 in mammalian cells. HeLa cells transfected with either pRK5 vector or pRKmyc-FIN13 (expressing myc-FIN13) and harvested 24 h later, were lysed in lysis buffer and cleared extracts ([…]) were immunoprecipitated with either anti-myc antibodies (9E10) or anti-FIN13 antiserum (630). IPs were then divided and subjected to either Western analysis for the detection of FIN13 expression or a phosphatase assay. For the detection of FIN13 (A), 1/4 of the IP was boiled in sample buffer and loaded onto a 10% polyacrylamide gel, electrophoresed and transferred to a nitrocellulose filter. Western blot analysis was performed using the 630 antiserum at 1:500 as described in Materials and Methods. For analysis of phosphatase activity (B), the ability of myc-FIN13 immunoprecipitates (1/8 of IP) to dephosphorylate ^32 P-labelled casein was examined in vitro in the presence of okadaic acid and MnCl2 as described in Materials and Methods. […]
Phosphatase assay. The phosphatase activity of purified FIN13 expressed in bacteria as a fusion protein with N- and C-terminal his-tags was assessed in vitro using ^32 P-labelled casein as a substrate. […] In addition, the phosphatase activity of FIN13 expressed in HeLa cells was also determined in an immune complex using ^32 P-labelled casein as a substrate. […]

[4] = test system: FIN13 mRNA; test: Northern analysis of FIN13 mRNA induction in NIH 3T3 cells; assay type: cell-based, mouse
Procedure: FIG. 4. Regulation of FIN13 (and other FINs) mRNA in response to FGF-4. NIH 3T3 cells were starved for 48 h in DMEM/0.5% CS and stimulated for the indicated times up to 24 h with 100 ng/ml FGF-4. A15 cells and NIH 3T3 cells growing asynchronously in the presence of DMEM/10% CS are indicated as A15 and 3T3 respectively. Total RNA (6 μg) was examined by Northern analysis with ^32 P-labelled cDNAs for the indicated FIN genes shown on the left. The position of 28S and 18S rRNA are indicated on the right.
(§1) Cell culture. Mouse NIH 3T3 cells and A15 cells were cultured in Dulbecco's modified Eagle's medium (DMEM) containing 10% calf serum (CS). A15 cells are a NIH 3T3 cell line transformed with a human genomic fragment of the FGF-4 gene and have been previously described (Delli Bovi and Basilico, 1987, Proc. Natl. Acad. Sci. USA 84:5660). Rat pheochromocytoma PC12 cells were cultured in DMEM containing 10% heat inactivated horse serum (HS) (Gemini Bioproducts), 5% fetal bovine serum (FBS) (Gemini Bioproducts). […] Greater than 90% of PC12 cells had differentiated after 96 h or FGF-4 or NGF treatment as determined by the induction of neurite-like processes. […]
A maximum induction of 6-fold following 18 h stimulation was observed. […] The effect of cycloheximide on the induction of FIN13 mRNA was evaluated as follows. […]

[5] = biological target: Protein phosphatase 2A (Homo sapiens, UniProt P67775); test: Protein phosphatase 2A control phosphatase assay; assay type: biochemical; details: 2 h, presence of okadaic acid
[6] = test system: FIN13 transcripts; test: Regulation of FIN13 transcripts in PC12 cells; assay type: cell-based, rat; details: starved PC12 cells
Procedure: as §1, with “Bioproducts). For stimulation with growth factors, NIH 3T3 cells were grown to 60-80% confluence, starved for 48 h in DMEM containing 0.5% CS and then stimulated with 50 ng/ml recombinant human FGF-4 or 10% CS for up to 24 h. Where indicated 10 μg/ml cycloheximide was added simultaneously with the growth factor. PC12 cells were starved for 48 h in DMEM containing 4.9 g/l glucose, 0.1% HS and 5% FBS for up to 24 h.” for “Bioproducts).”
Cells were starved for 48 h in 0.2% serum and then stimulated with either serum or FGF-4. […] Similar regulation of FIN13 was observed when starved PC12 cells were stimulated with FGF-4 with maximum expression detected at 12 h which decreased until 96 h.

Chain of Protein phosphatase 2A (P67775 whole entry): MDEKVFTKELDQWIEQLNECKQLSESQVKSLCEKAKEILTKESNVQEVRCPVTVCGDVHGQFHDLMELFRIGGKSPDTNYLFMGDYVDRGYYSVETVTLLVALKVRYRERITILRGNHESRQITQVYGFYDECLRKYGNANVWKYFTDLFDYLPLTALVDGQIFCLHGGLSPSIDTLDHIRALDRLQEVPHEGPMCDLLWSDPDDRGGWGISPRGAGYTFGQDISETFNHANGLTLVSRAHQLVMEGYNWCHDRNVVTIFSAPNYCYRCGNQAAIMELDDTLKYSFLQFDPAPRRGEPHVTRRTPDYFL

CC/C(=C(/CC)c1ccc(O)cc1)c1ccc(O)cc1 [DES, diethylstilbesterol]
expression of fin13 mRNA in ovaries [1]: increases expression

O=C(O)CN(CCN(CC(=O)O)CC(=O)O)CC(=O)O [EDTA]
effect on his-FIN13 phosphatase activity [2]: abolished activity
effect on FIN13 activity in 9E10 IPs ([3]; EDTA 10 mM): abolished

C[C@@H]1C[C@@H]([C@H](O)CC2CC(=O)NC(=O)C2)C(=O)[C@@H](C)C1 [cycloheximide]
induction of FIN13 mRNA by FGF-4 in presence of protein synthesis inhibitor ([4]; 18 h FGF-4, 10 mg/ml cycloheximide): did not result in induction of FIN13

C=C1[C@@H](O)[C@@H]2O[C@]3(CC[C@H](/C=C/[C@@H](C)[C@@H]4CC(C)=C[C@@]5(O[C@H](C[C@@](C)(O)C(=O)O)CC[C@H]5O)O4)O3)CC[C@H]2O[C@@H]1[C@@H](O)C[C@H](C)[C@H]1O[C@@]2(CCCCO2)CC[C@H]1C [okadaic acid]
effect on his-FIN13 phosphatase activity ([2]; 1 μM okadaic acid): not inhibited
effect on PP2A activity [5]: abolished

B1: myc-FIN13: FIN13 N-terminally fused to the myc epitope, expressed from pRKmyc-FIN13 (protein)
chain: T1 sequence (Q61074 151-542 limits assumed)
phosphatase activity of immunoprecipitate in vitro ([3]; IP with 9E10 or 630, okadaic acid and MnCl2 present): exhibited phosphatase activity

B2: FGF-4: recombinant human fibroblast growth factor 4 (protein, UniProt P08620 31-206, looked up)
Fibroblast growth factor 4: APTAPNGTLEAELERRWESLVALSLARLPVAAQPKEAAVQSGAGDYLLGIKRLRRLYCNVGIGFHLQALPDGRIGGAHADTRDSLLELSPVERGVVSIFGVASRFFVAMSSKGKLYGSPFFTDECTFKEILLPNNYNAYESYKYPGMFIALSKNGKTKKGNRVSPTMKVTHFLPRL
maximum induction of FIN13 mRNA ([4]; 18 h stimulation of NIH 3T3 cells): 6 fold
time of maximum FIN13 expression [6]: 12 h
